From patent US20250304717A1, “CAMPTOTHECIN DERIVATIVE AND LIGAND-DRUG CONJUGATE” (HAINAN SIMCERE ZAIMING PHARMACEUTICAL CO., LTD., priority 2022, published 2025)
Read-outs that look alike come from different tables or passages of the source.

Columns and labels:
HCT116 cells = assay: Anti-tumor cell proliferation activity of compound of formula (D-H), Cell-Titer Glo, HCT116; format: cell-based; details: Homo sapiens, HCT-116, 72 h
Experimental: (§1) Cell culture: HCT116 cells and SKBR3 cells were cultured with a McCoy's 5a medium containing 10% fetal bovine serum+1% penicillin-streptomycin at 37° C. with 5% CO2, and OVCAR3 cells were cultured with a 1640 medium containing 20% fetal bovine serum+2 μg/mL bovine insulin+1% penicillin-streptomycin at 37° C. with 5% CO2. Cells at logarithmic growth phase were available for the experiment.
(§2) Cell proliferation activity test: The Cell-Titer Glo reagent was used to test the compound for inhibitory activity on proliferation of the three cell strains HCT116, SKBR3, and OVCAR3. HCT116 cells (1500 per well), SKBR3 cells (3000 per well), and OVCAR3 cells (5000 per well) were seeded on 96-well plates and incubated at 37° C. with 5% CO2 for 24 h. After a solution of the compound to be detected was added (the compound was dissolved in DMSO so that the compound concentration was 1 mM, then the compound was diluted to […] in DMSO at 9 concentrations in a 3-fold dilution, and 10 μL of the prepared compound solution was transferred to the 96-well plate so that the final concentration was 0-300 nM), the mixture was incubated at 37° C. with 5% CO2. HCT116 cells were cultured for 3 days, and SKBR3 cells and OVCAR3 cells were cultured for 5 days. The Cell-Titer Glo reagent was added and the cell activity was measured.
(§3) A negative control group and a positive control group were respectively used as Bottom and Top. The negative control group was not added with cells, only added with the culture medium in the same volume, and other operations were consistent with those of the experimental group. The positive control group was not added with the test drug, and other operations were consistent with those of the experimental group.
(§4) Data analysis: % Inhibition was calculated, and compound IC50 was fitted.
(§5) % Inhibition=1-100%×(Signal−Bottom)/(Top−Bottom).
(§6) Signal referred to the signal value of the experimental group, Bottom referred to the average signal value of the negative control group, and Top referred to the average signal value of the positive control group.

OVCAR3 cells = assay: Anti-tumor cell proliferation activity of compound of formula (D-H), Cell-Titer Glo, OVCAR3; format: cell-based; details: Homo sapiens, OVCAR-3, 120 h
Experimental: as §1, §2, §3, §4, §5, §6

SKBR3 cells = assay: Anti-tumor cell proliferation activity of compound of formula (D-H), Cell-Titer Glo, SKBR3; format: cell-based, human; details: Homo sapiens, SK-BR-3, 120 h, read-out: SKBR3 Antiproliferative activity IC50 (nM), SKBR3 cells, 5 days
Experimental: as §1, §2, §3, §4, §5, §6

[1] = read-out: HCT116 Antiproliferative activity IC50 (nM), HCT116 cells, 3 days
[2] = read-out: OVCAR3 Antiproliferative activity IC50 (nM)
[3] = HCT116 cells, 3 days, read-out: HCT116 Antiproliferative activity IC50

Structure (SMILES)	IC50 (HCT116 cells; [1])	IC50 (SKBR3 cells)	further results
CC[C@@]1(O)C(=O)OCc2c1cc1n(c2=O)Cc2c-1nc1cc3c(c(Cl)c1c2CNC(=O)C(O)C1CC1)OCO3 (stereo partly drawn) [Compound 30, N—(((S)-15-chloro-7-ethyl-7-hydroxy-8,11-dioxo-7,8,11,13-tetrahydro-10H-[1,3]dioxolo[4,5-g]pyrano[3′,4′:6,7]indolizino[1,2-b]quinolin-14-yl)methyl)-2-cyclopropyl-2-hydroxyacetamide]	< 10 nM	–	IC50 (OVCAR3 cells; [2]): 0.4 nM
CC[C@@]1(O)C(=O)OCc2c1cc1n(c2=O)Cc2c-1nc1cc(Cl)c(C)cc1c2CNC(=O)C(C)(C)O [Compound 17, (S)-N-((8-chloro-4-ethyl-4-hydroxy-9-methyl-3,14-dioxo-3,4,12,14-tetrahydro-1H-pyrano[3′,4′:6,7]indolizino[1,2-b]quinolin-11-yl)methyl)-2-hydroxy-2-methylpropanamide]	< 10 nM	2.7 nM	–
CC[C@@]1(O)C(=O)OCc2c1cc1n(c2=O)Cc2c-1nc1cc(F)c(Br)cc1c2CNC(=O)CO [Compound 5, (S)-N-((9-bromo-4-ethyl-8-fluoro-4-hydroxy-3,14-dioxo-3,4,12,14-tetrahydro-1H-pyrano[3′,4′:6,7]indolizino[1,2-b]quinolin-11-yl)methyl)-2-hydroxyacetamide]	–	3.3 nM	–
CC[C@@]1(O)C(=O)OCc2c1cc1n(c2=O)Cc2c-1nc1cc(F)c(Cl)cc1c2CNC(=O)CO [Compound 3, (S)-N-((9-chloro-4-ethyl-8-fluoro-4-hydroxy-3,14-dioxo-3,4,12,14-tetrahydro-1H-pyrano[3′,4′:6,7]indolizino[1,2-b]quinolin-11-yl)methyl)-2-hydroxyacetamide]	–	3.6 nM	–
CC[C@@]1(O)C(=O)OCc2c1cc1n(c2=O)Cc2c-1nc1cc(F)c(Cl)c(F)c1c2CNC(=O)C1(O)CC1 [Compound 16, (S)-N-((9-chloro-4-ethyl-8,10-difluoro-4-hydroxy-3,14-dioxo-3,4,12,14-tetrahydro-1H-pyrano[3′,4′:6,7]indolizino[1,2-b]quinolin-11-yl)methyl)-1-hydroxycyclopropane-1-carboxamide]	< 10 nM	2.3 nM	–
CC[C@@]1(O)C(=O)OCc2c1cc1n(c2=O)Cc2c-1nc1ccc3occc3c1c2CNC(=O)CO [Compound 20, (S)-N-((8-ethyl-8-hydroxy-9,12-dioxo-8,9,12,14-tetrahydro-11H-furo[3,2-f]pyrano [3′,4′:6,7]indolizino[1,2-b]quinolin-15-yl)methyl)-2-hydroxyacetamide]	10 to 100 nM	10.5 nM	–
CC[C@@]1(O)C(=O)OCc2c1cc1n(c2=O)Cc2c-1nc1cc(Cl)c(C)cc1c2CNC(=O)C(O)C1CC1 (stereo partly drawn) [Compound 11, N—(((S)-8-chloro-4-ethyl-4-hydroxy-9-methyl-3,14-dioxo-3,4,12,14-tetrahydro-1H-pyrano[3′,4′:6,7]indolizino[1,2-b]quinolin-11-yl)methyl)-2-cyclopropyl-2-hydroxyacetamide]	–	3.2 nM	–
[2H]C1([2H])Oc2cc3nc4c(c(CNC(=O)[C@@H](O)C5CC5)c3cc2O1)Cn1c-4cc2c(c1=O)COC(=O)[C@]2(O)CC [Compound 19-P2, 2-cyclopropyl-N—(((S)-7-ethyl-7-hydroxy-8,11-dioxo-7,8,11,13-tetrahydro-10H-[1,3]dioxolo[4,5-g]pyrano[3′,4′:6,7]indolizino[1,2-b]quinolin-14-yl-2,2-d2)methyl)-2-hydroxyacetamide]	–	–	IC50 (HCT116 cells; [3]): < 10 nM; IC50 (OVCAR3 cells; OVCAR3 cells, 5 days, read-out: OVCAR3 Antiproliferative activity IC50): 1 nM
CC[C@@]1(O)C(=O)OCc2c1cc1n(c2=O)Cc2c-1nc1cc(Cl)c3occc3c1c2CNC(=O)C(O)C1CC1 (stereo partly drawn) [Compound 28, N—(((S)-4-chloro-8-ethyl-8-hydroxy-9,12-dioxo-8,9,12,14-tetrahydro-11H-furo[3,2-f]pyrano[3′,4′:6,7]indolizino[1,2-b]quinolin-15-yl)methyl)-2-cyclopropyl-2-hydroxyacetamide]	< 10 nM	–	–
CC[C@@]1(O)C(=O)OCc2c1cc1n(c2=O)Cc2c-1nc1cc(Cl)c(C)cc1c2CNC(=O)C(O)C(C)C (stereo partly drawn) [Compound 18, N—(((S)-8-chloro-4-ethyl-4-hydroxy-9-methyl-3,14-dioxo-3,4,12,14-tetrahydro-1H-pyrano[3′,4′:6,7]indolizino[1,2-b]quinolin-11-yl)methyl)-2-hydroxy-3-methylbutanamide]	10 to 100 nM	5.1 nM	–
CC[C@@]1(O)C(=O)OCc2c1cc1n(c2=O)Cc2c-1nc1cc3c(c([N+](=O)[O-])c1c2CNC(=O)C(O)C1CC1)OCO3 (stereo partly drawn) [Compound 29, 2-cyclopropyl-N—(((S)-7-ethyl-7-hydroxy-15-nitro-8,11-dioxo-7,8,11,13-tetrahydro-10H-[1,3]dioxolo[4,5-g]pyrano[3′,4′:6,7]indolizino[1,2-b]quinolin-14-yl)methyl)-2-hydroxyacetamide]	10 to 100 nM	–	–
[2H]C1([2H])Oc2cc3nc4c(c(CNC(=O)[C@@H](O)C5CC5)c3cc2O1)Cn1c-4cc2c(c1=O)COC(=O)[C@]2(O)CC [Compound 19-P1, (S)-2-cyclopropyl-N—(((S)-7-ethyl-7-hydroxy-8,11-dioxo-7,8,11,13-tetrahydro-10H-[1,3]dioxolo[14,5-g]pyrano[3′,4′:6,7]indolizino[1,2-b]quinolin-14-yl-2,2-d2)methyl)-2-hydroxyacetamide]	< 10 nM	–	IC50 (OVCAR3 cells; [2]): 0.6 nM
CC[C@@]1(O)C(=O)OCc2c1cc1n(c2=O)Cc2c-1nc1ccc3c(c1c2CNC(=O)CO)CCC3 [Compound 7, (S)-N-((8-ethyl-8-hydroxy-9,12-dioxo-2,3,8,9,12,14-hexahydro-1H,11H-cyclopenta[f]pyrano[3′,4′:6,7]indolizino[1,2-b]quinolin-15-yl)methyl)-2-hydroxyacetamide]	10 to 100 nM	–	–
CC[C@@]1(O)C(=O)OCc2c1cc1n(c2=O)Cc2c-1nc1cc(F)c(C)cc1c2CNC(=O)C1(O)CC1 [Compound 9, (S)-N-((4-ethyl-8-fluoro-4-hydroxy-9-methyl-3,14-dioxo-3,4,12,14-tetrahydro-1H-pyrano[3′,4′:6,7]indolizino[1,2-b]quinolin-11-yl)methyl)-1-hydroxycyclopropane-1-carboxamide]	< 10 nM	2.1 nM	–
CC[C@@]1(O)C(=O)OCc2c1cc1n(c2=O)Cc2c-1nc1cc3c(cc1c2CNC(=O)CO)OCCO3 [Compound 1, (S)-N-((8-ethyl-8-hydroxy-9,12-dioxo-2,3,8,9,12,14-hexahydro-11H-[1,4]dioxino[2,3-g]pyrano[3′,4′:6,7]indolizino[1,2-b]quinolin-15-yl)methyl)-2-hydroxyacetamide]	–	8.5 nM	–
CC[C@@]1(O)C(=O)OCc2c1cc1n(c2=O)Cc2c-1nc1cc(Cl)c(C)cc1c2CNC(=O)C1(O)CC1 [Compound 10, (S)-N-((8-chloro-4-ethyl-4-hydroxy-9-methyl-3,14-dioxo-3,4,12,14-tetrahydro-1H-pyrano[3′,4′:6,7]indolizino[1,2-b]quinolin-11-yl)methyl)-1-hydroxycyclopropane-1-carboxamide]	< 10 nM	2.3 nM	–
CC[C@@]1(O)C(=O)OCc2c1cc1n(c2=O)Cc2c-1nc1cc3c(c(F)c1c2CNC(=O)[C@@H](O)C1CC1)OCO3 [Compound 35-P1, 2-cyclopropyl-N-(((S)-7-ethyl-15-fluoro-7-hydroxy-8,11-dioxo-7,8,11,13-tetrahydro-10H-[1,3]dioxolo[4,5-g]pyrano[3′,4′:6,7]indolizino[1,2-b]quinolin-14-yl)methyl)-2-hydroxyacetamide]	–	–	IC50 (HCT116 cells; [3]): < 10 nM
CC[C@@]1(O)C(=O)OCc2c1cc1n(c2=O)Cc2c-1nc1cc(Cl)c3occc3c1c2CNC(=O)CO [Compound 27, (S)-N-((4-chloro-8-ethyl-8-hydroxy-9,12-dioxo-8,9,12,14-tetrahydro-11H-furo[3,2-f]pyrano[3′,4′:6,7]indolizino[1,2-b]quinolin-15-yl)methyl)-2-hydroxyacetamide]	10 to 100 nM	–	–
[2H]C1([2H])Oc2cc3nc4c(c(CNC(=O)C(O)C5CC5)c3cc2O1)Cn1c-4cc2c(c1=O)COC(=O)[C@]2(O)CC (stereo partly drawn) [Compound 19, 2-cyclopropyl-N—(((S)-7-ethyl-7-hydroxy-8,11-dioxo-7,8,11,13-tetrahydro-10H-[1,3]dioxolo[4,5-g]pyrano[3′,4′:6,7]indolizino[1,2-b]quinolin-14-yl-2,2-d2)methyl)-2-hydroxyacetamide]	< 10 nM	–	–
CC[C@@]1(O)C(=O)OCc2c1cc1n(c2=O)Cc2c-1nc1cnc(Br)cc1c2CNC(=O)CO [Compound 15, (S)-N-((9-bromo-4-ethyl-4-hydroxy-3,14-dioxo-3,4,12,14-tetrahydro-1H-pyrano[3′,4′:6,7]indolizino[1,2-b][1,7]naphthyridin-11-yl)methyl)-2-hydroxyacetamide]	10 to 100 nM	–	–
